Source: patent publication US12139508B2, “Steroid derivative regulators, method for preparing the same, and uses thereof” (JIANGSU HANSOH PHARMACEUTICAL GROUP CO., LTD., priority 2018, dated 2024)

Target: GABA-A receptor
Test: 35S-TBPS binding assay (GABAA receptor binding ability test)
Parameters: species or system Sprague-Dawley rat
Conditions: rat cerebral cortex cell membrane, 5 μM GABA, 2 nM 35S-TBPS; read-out: 35S-TBPS bindng test: IC50 on inhibiting the TBPS binding activity
Procedure: 1.2 Experimental Procedures 1.2.1 Extraction of Cerebral Cortex Cell Membrane:
1. The cerebral cortex of male Sprague-Dawley rat was isolated.
2. A pre-chilled 0.32 M sucrose solution (one tablet of protease inhibitor was added per 100 ml) was added to the cerebral cortex (the volume of sucrose solution was 10 times the volume of the cerebral cortex). The mixture was crushed with a 50 mL glass tissue homogenizer in batches and mixed well.
3. The mixture was centrifuged at 1500 g, 4° C. for 10 minutes, and the supernatant was collected.
4. The mixture was centrifuged at 20000 g, 4° C. for 30 minutes, and the supernatant was discarded.
5. The precipitate was resuspended with the pre-chilled phosphate buffer saline (PBS) (one tablet of protease inhibitor was added per 100 ml). An average of 4 ml of PBS was added per rat, and the mixture was mixed well by a glass tissue homogenizer.
6. The mixture was centrifuged at 10000 g, 4° C. for 10 minutes, and the supernatant was discarded.
7. Steps 5 and 6 were repeated three times.
8. Finally, the precipitate was resuspended with 4 volumes of PBS. The resulting solution was dispensed, frozen in liquid nitrogen, and stored at −80° C.
9. The protein concentration was measured by the bicinchoninic acid (BCA) method.
1.2.2 ^35S-TBPS Binding Assay
1. 230 μL of PBS was added to each well of a well plate with 1.1 ml volume.
2. 60 μL of the cerebral cortex cell membrane (5 μg/μL) solution was added to each well, and the mixture was mixed well.
3. The test compound (3 μL per well) was added, and the plate was incubated at 25° C. for 5 minutes. The DMSO concentration was 1%. The initial compound concentration was 1 μM, and a 3-fold dilution in gradient was carried out to obtain a total of 8 gradients and 2 replicates. 1% DMSO was used as a negative control, and 10 μM P026-2 was used as a positive control.
4. GABA was added at a final concentration of 5 μM, and incubated at 25° C. for 5 minutes. 1 mM GABA solution was formulated, and 1.5 μL of the solution was added to each well.
5. ^35S-TBPS was added at a final concentration of 2 nM. The concentration of isotope mother solution was 9.7 μM. After dilution with PBS for 100 times, 6 μL of the diluted isotope solution was added to each well.
6. The plate was incubated at 4° C. for 20 hours.
7. The FilterMate GF/C plate was pre-treated with 0.5% PEI, and incubated at 4° C. for 1 hour.
8. The FilterMate GF/C plate was washed with Universal Harvester twice, 50 ml PBS each time.
9. The reaction solution was transferred to the GF/C plate, and each well was washed 4 times with 900 μL of PBS.
10. The washed GF/C plate was placed at 55° C. and dried for 10 minutes.
11. 40 μL of scintillation solution was added to each well, and the CPM value was read with TopCount.
1.2.3 Experimental Data Processing Method:
In the experiment, the CPM (counts per minute) value was read with TopCount. According to the readings of the High control (DMSO) and the Low control ([…] of the positive compound) experimental groups, the […] inhibition was calculated based on the following formula: % Inhibition=100×(CPMHigh control−CPMSample)/(CPMHigh control−CPMLow control)
The IC50 of the compound was calculated according to the following 4-parameter nonlinear logic formula: Y=Bottom+(Top−Bottom)/(1+10^((Log IC50−X)*Hill Slope)),
wherein: • X represents the log of compound concentration, • Y represents the 0 Inhibition.
The effect of the compound of the present invention on the TBPS binding activity was determined by the above test, and the measured IC50 values are shown in Table 1.

Structure (SMILES)	IC50
CC[C@@H]1C[C@H](C(=O)Cn2ncnn2)[C@@]2(C)CC[C@H]3[C@@H](CC[C@@H]4C[C@](C)(O)CC[C@@H]43)[C@H]12 [Example 149, 1-((3R,5R,8R,9R,10S,13S,14S,15R,17S)-15-Ethyl-3-hydroxy-3,13-dimethylhexadecahydro-1H-cyclopenta[a]phenanthren-17-yl)-2-(2H-tetrazol-2-yl)ethan-1-one]	25.6 nM
C[C@@]1(O)CC[C@H]2[C@H](CC[C@@H]3[C@@H]2CC[C@]2(C)[C@@H](C(=O)COCC4(C#N)CC4)CC[C@@H]32)C1 [Example 166, 1-((2-((3R,5R,8R,9R,10S,13S,14S,17S)-3-Hydroxy-3,13-dimethylhexadecahydro-1H-cyclopenta[a]phenanthren-17-yl)-2-oxoethoxy)methyl)cyclopropane-1-carbonitrile]	38.4 nM
C[C@@]1(O)CC[C@H]2[C@H](CC[C@@H]3[C@@H]2CC[C@@]2(C)[C@H]3[C@@H]3C[C@@H]3[C@@H]2C(=O)COc2ccc(F)cc2C#N)C1 [Example 126, 5-Fluoro-2-(2-((2R,4aS,4bR,6aS,7S,7aS,8aR,8bR,8cR,10aR)-2-hydroxy-2,6a-dimethyloctadecahydrocyclopropa[4,5]cyclopenta[1,2-a]phenanthren-7-yl)-2-oxoethoxy)benzonitrile]	4.9 nM
C[C@@H]1C[C@H](C(=O)Cn2cc(C#N)c(C3CC3)n2)[C@@]2(C)CC[C@H]3[C@@H](CC[C@@H]4C[C@](C)(O)CC[C@@H]43)[C@H]12 [Example 69, 3-Cyclopropyl-1-(2-((3R,5R,8R,9R,10S,13S,14S,15R,17S)-3-hydroxy-3,13,15-trimethylhexadecahydro-1H-cyclopenta[a]phenanthren-17-yl)-2-oxoethyl)-1H-pyrazole-4-carbo nitrile]	7.6 nM
C[C@@H]1C[C@H](C(=O)COc2ccc(F)cc2F)[C@@]2(C)CC[C@H]3[C@@H](CC[C@@H]4C[C@](C)(O)CC[C@@H]43)[C@H]12 [Example 64, 2-(2,4-Difluorophenoxy)-1-((3R,5R,8R,9R,10S,13S,14S,15R,17S)-3-hydroxy-3,13,15-trimethylhexadecahydro-1H-cyclopenta[a]phenanthren-17-yl)ethan-1-one]	8.6 nM
C[C@@H]1C[C@H](C(=O)CN2C(=O)CSC2=O)[C@@]2(C)CC[C@H]3[C@@H](CC[C@@H]4C[C@](C)(O)CC[C@@H]43)[C@H]12 [Example 136, 3-(2-((3R,5R,8R,9R,10S,13S,14S,15R,17S)-3-Hydroxy-3,13,15-trimethylhexadecahydro-1H-cyclopenta[a]phenanthren-17-yl)-2-oxoethyl)thiazolidine-2,4-dione]	26.5 nM
C[C@@]1(O)CC[C@H]2[C@H](CC[C@@H]3[C@@H]2CC[C@@]2(C)[C@H]3[C@@H]3C[C@@H]3[C@@H]2C(=O)Cn2cc3ccncc3n2)C1 [Example 41, 1-((2R,4aS,4bR,6aS,7S,7aS,8aR,8bR,8cR,10aR)-2-hydroxy-2,6a-dimethyloctadecahydrocyclopropa[4,5]cyclopenta[1,2-a]phenanthren-7-yl)-2-(2H-pyrazolo[3,4-c]pyridin-2-yl)ethan-1-one]	22.7 nM
C[C@@]1(O)CC[C@H]2[C@H](CC[C@@H]3[C@@H]2CC[C@@]2(C)[C@H]3[C@@H]3C[C@@H]3[C@@H]2C(=O)Cn2ccnc2)C1 [Example 98, 1-((2R,4aS,4bR,6aS,7S,7aS,8aR,8bR,8cR,10aR)-2-Hydroxy-2,6a-dimethyloctadecahydrocyclopropa[4,5]cyclopenta[1,2-a]phenanthren-7-yl)-2-(1H-imidazol-1-yl)ethan-1-one]	37.8 nM
C[C@@]1(O)CC[C@H]2[C@H](CC[C@@H]3[C@@H]2CC[C@@]2(C)[C@H]3[C@@H]3C[C@@H]3[C@@H]2C(=O)Cn2cc(-c3ncco3)cn2)C1 [Example 128, 1-((2R,4aS,4bR,6aS,7S,7aS,8aR,8bR,8cR,10aR)-2-Hydroxy-2,6a-dimethyloctadecahydrocyclopropa[4,5]cyclopenta[1,2-a]phenanthren-7-yl)-2-(4-(oxazol-2-yl)-1H-pyrazol-1-yl)ethan-1-one]	15.8 nM
C[C@@]1(O)CC[C@H]2[C@H](CC[C@@H]3[C@@H]2CC[C@@]2(C)[C@H]3[C@@H]3C[C@@H]3[C@@H]2C(=O)Cn2ccnn2)C1 [Example 8, 1-((2R,4aS,4bR,6aS,7S,7aS,8aR,8bR,8cR,10aR)-2-Hydroxy-2,6a-dimethyloctadecahydrocyclopropa[4,5]cyclopenta[1,2-a]phenanthren-7-yl)-2-(1H-1,2,3-triazol-1-yl)ethan-1-one]	42 nM
C[C@@]1(O)CC[C@H]2[C@H](CC[C@@H]3[C@@H]2CC[C@@]2(C)[C@H]3[C@H](C3CC3)C[C@@H]2C(=O)Cn2ccc(C(F)(F)F)n2)C1 [Example 144, 1-((3R,5R,8R,9R,10S,13S,14S,15S,17S)-15-Cyclopropyl-3-hydroxy-3,13-dimethylhexadecahydro-1H-cyclopenta[a]phenanthren-17-yl)-2-(3-(trifluoromethyl)-1H-pyrazol-1-yl)ethan-1-one]	18.6 nM
C[C@@H]1C[C@H](C(=O)Cn2cc(Cl)cn2)[C@@]2(C)CC[C@H]3[C@@H](CC[C@@H]4C[C@](C)(O)CC[C@@H]43)[C@H]12 [Example 91, 2-(4-Chloro-1H-pyrazol-1-yl)-1-((3R,5R,8R,9R,10S,13S,14S,15R,17S)-3-hydroxy-3,13,15-trimethylhexadecahydro-1H-cyclopenta[a]phenanthren-17-yl)ethan-1-one]	9.6 nM
C[C@@]1(O)CC[C@H]2[C@H](CC[C@@H]3[C@@H]2CC[C@@]2(C)[C@H]3[C@@H]3C[C@@H]3[C@@H]2C(=O)Cn2nc(C#N)cc2C#N)C1 [Example 127, 1-(2-((2R,4aS,4bR,6aS,7S,7aS,8aR,8bR,8cR,10aR)-2-Hydroxy-2,6a-dimethyloctadecahydrocyclopropa[4,5]cyclopenta[1,2-a]phenanthren-7-yl)-2-oxoethyl)-1H-pyrazole-3,5-dicarbonitrile]	6.1 nM
Cc1nnn(CC(=O)[C@H]2C[C@@H](C)[C@H]3[C@@H]4CC[C@@H]5C[C@](C)(O)CC[C@@H]5[C@H]4CC[C@@]32C)n1 [Example 62, 1-((3R,5R,8R,9R,10S,13S,14S,15R,17S)-3-Hydroxy-3,13,15-trimethylhexadecahydro-1H-cyclopenta[a]phenanthren-17-yl)-2-(5-methyl-2H-tetrazol-2-yl)ethan-1-one]	5.4 nM
CC(=O)[C@H]1[C@H]2C[C@H]2[C@H]2[C@@H]3CC[C@@H]4C[C@](C)(O)CC[C@@H]4[C@H]3CC[C@@]21C [Example 1, 1-((2R,4aS,4bR,6aS,7S,7aS,8aR,8bR,8cR,10aR)-2-Hydroxy-2,6a-dimethyloctadecahydrocyclopropa[4,5]cyclopenta[1,2-a]phenanthren-7-yl)ethan-1-one]	15 nM
CC[C@@H]1C[C@H](C(=O)Cn2nc(C#N)cc2C#N)[C@@]2(C)CC[C@H]3[C@@H](CC[C@@H]4C[C@](C)(O)CC[C@@H]43)[C@H]12 [Example 142, 1-(2-((3R,5R,8R,9R,10S,13S,14S,15R,17S)-15-Ethyl-3-hydroxy-3,13-dimethylhexadecahydro-1H-cyclopenta[a]phenanthren-17-yl)-2-oxoethyl)-1H-pyrazole-3,5-dicarbonitrile]	16.2 nM
